The text below walks through data of patent US20250223300A1, “MACROCYCLIC COMPOUND AND PHARMACEUTICAL COMPOSITION AND USE THEREOF” (BETTA PHARMACEUTICALS CO., LTD, priority 2022, published 2025).

Data set [1] concerns the target Ba/F3 cells overexpressing EGFR Del19/T790M/C797S (Homo sapiens, UniProt P00533, T790M/C797S, cells depend on it, form not given). Put plainly: Cell proliferation inhibitory activity assay, Ba/F3 EGFR Del19/T790M/C797S. Type of data set: cell-based. The note with it: cell proliferation inhibition, 72 hours, luminescence; read-out: Ba/F3 cells overexpressing different EGFR mutations IC50 (nM) Del19/T790M/C797S. In a few lines:
(§1)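 Ba/F3 cells overexpressing the indicated EGFR mutants, grown in RPMI 1640 with 10% FBS, were treated with compound at 37 °C, 5% CO2. Cell survival inhibition rate plotted against log compound concentration; IC50 from four-parameter sigmoidal fit.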

Data set [2] has as its target Ba/F3 (EGFR L858R/T790M/C797S) (Homo sapiens, UniProt P00533, T790M/C797S/L858R, cells depend on it). Kind of data set: Cell proliferation inhibitory activity assay, Ba/F3 EGFR L858R/T790M/C797S. The note with it: cell proliferation inhibition, 72 hours, luminescence; read-out: Ba/F3 cells overexpressing different EGFR mutations IC50 (nM) L858R/T790M/C797S. In kind it is cell-based. The essentials: as §1

In another data set the target is Ba/F3 (EGFR Del19/C797S) (Homo sapiens, UniProt P00533, C797S, cells depend on it, form not given). Put plainly: Cell proliferation inhibitory activity assay, Ba/F3 EGFR Del19/C797S. Type of data set: cell-based. The note with it: cell proliferation inhibition, 72 hours, luminescence; read-out: Ba/F3 cells overexpressing different EGFR mutations IC50 (nM) Del19/C797S. The essentials: as §1
Ba/F3 (EGFR Del19/C797S), sequence (P00533 with tags, fused parts or gaps DEL746-750/C797S, form open): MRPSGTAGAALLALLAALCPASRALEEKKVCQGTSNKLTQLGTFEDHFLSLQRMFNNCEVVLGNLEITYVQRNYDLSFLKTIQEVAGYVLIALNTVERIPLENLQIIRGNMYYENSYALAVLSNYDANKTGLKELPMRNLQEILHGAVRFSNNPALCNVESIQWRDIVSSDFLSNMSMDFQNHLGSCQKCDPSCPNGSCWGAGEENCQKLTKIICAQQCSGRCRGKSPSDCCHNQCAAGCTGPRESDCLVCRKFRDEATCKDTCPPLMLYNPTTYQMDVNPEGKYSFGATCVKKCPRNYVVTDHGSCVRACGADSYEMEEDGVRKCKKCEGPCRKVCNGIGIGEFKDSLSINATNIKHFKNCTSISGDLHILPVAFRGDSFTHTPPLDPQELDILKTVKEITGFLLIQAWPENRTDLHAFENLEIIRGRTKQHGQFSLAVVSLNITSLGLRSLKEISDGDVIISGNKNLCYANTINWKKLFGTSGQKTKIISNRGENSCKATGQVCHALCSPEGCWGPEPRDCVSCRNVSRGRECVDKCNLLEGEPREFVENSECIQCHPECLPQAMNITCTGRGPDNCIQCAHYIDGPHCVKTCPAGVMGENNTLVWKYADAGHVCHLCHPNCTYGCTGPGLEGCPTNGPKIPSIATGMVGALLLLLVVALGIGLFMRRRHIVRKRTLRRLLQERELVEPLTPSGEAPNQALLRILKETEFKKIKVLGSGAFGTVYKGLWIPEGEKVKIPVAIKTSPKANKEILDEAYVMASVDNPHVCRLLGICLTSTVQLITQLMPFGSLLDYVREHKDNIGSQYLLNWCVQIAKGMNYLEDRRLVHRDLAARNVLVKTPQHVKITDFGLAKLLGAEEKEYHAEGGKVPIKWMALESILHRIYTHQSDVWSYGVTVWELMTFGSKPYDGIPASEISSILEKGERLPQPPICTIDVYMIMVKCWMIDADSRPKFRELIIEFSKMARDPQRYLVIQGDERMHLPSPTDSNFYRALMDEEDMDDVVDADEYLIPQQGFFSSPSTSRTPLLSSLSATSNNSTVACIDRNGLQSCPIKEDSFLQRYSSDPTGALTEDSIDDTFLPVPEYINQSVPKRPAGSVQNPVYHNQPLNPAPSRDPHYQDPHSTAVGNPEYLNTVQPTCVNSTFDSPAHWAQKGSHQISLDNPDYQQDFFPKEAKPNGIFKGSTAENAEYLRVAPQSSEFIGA

The target in a further data set is Ba/F3 (EGFR L858R/C797S) (Homo sapiens, UniProt P00533, C797S/L858R, cells depend on it). Kind of data set: Cell proliferation inhibitory activity assay, Ba/F3 EGFR L858R/C797S. Type of data set: cell-based. The settings on record: cell proliferation inhibition, 72 hours, luminescence; read-out: Ba/F3 cells overexpressing different EGFR mutations IC50 (nM) L858R/C797S. The essentials: as §1
Ba/F3 (EGFR L858R/C797S), sequence (P00533 whole entry C797S/L858R): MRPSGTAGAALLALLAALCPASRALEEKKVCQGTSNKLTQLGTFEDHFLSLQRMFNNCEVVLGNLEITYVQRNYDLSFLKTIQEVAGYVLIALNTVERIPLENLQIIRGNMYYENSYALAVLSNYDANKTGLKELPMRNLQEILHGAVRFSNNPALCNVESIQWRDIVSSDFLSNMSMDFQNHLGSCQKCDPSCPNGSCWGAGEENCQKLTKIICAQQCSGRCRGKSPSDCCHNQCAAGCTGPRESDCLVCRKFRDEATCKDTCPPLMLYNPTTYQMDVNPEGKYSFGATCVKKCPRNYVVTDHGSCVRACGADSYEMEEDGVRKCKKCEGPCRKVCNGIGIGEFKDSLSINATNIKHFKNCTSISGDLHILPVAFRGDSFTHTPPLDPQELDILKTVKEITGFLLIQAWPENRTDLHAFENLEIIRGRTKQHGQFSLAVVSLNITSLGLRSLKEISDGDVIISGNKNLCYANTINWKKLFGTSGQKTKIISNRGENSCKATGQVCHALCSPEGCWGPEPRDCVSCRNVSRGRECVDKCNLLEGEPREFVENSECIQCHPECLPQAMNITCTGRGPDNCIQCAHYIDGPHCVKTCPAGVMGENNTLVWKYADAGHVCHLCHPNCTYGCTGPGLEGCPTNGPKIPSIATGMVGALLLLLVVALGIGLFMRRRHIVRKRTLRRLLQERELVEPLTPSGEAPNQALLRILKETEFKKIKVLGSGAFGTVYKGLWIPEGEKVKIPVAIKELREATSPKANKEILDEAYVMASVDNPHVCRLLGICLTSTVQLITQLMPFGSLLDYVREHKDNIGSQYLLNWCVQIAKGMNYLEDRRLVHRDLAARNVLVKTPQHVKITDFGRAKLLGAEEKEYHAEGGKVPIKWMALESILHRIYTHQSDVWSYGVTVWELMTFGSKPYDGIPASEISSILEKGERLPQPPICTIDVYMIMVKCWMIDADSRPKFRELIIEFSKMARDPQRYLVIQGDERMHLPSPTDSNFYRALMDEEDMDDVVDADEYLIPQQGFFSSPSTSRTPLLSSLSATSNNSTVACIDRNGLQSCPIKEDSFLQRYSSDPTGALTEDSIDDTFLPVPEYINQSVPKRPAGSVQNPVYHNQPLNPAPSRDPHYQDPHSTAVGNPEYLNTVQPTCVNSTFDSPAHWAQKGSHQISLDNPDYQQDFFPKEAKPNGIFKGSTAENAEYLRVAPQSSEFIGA

Data set [3] deals with A431 cell carrying EGFR WT. Put plainly: Cell proliferation inhibitory activity assay, A431. Type of data set: cell-based. The note with it: Homo sapiens, A-431; cell proliferation inhibition, 72 hours, luminescence. The essentials: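 A431 cells, an adherent human line carrying wild-type EGFR, were grown in DMEM supplemented with 10% FBS and 1% PS. Log-phase cells were trypsinized, counted and plated into 96-well plates at a set density, then left overnight at 37° C. and 5% CO2 to attach. IC50 values came from fitting inhibition rate against log compound concentration.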

A short description of data set [4]: Metabolic stability of liver microsomes, human. Type of data set: in vitro ADME. The note with it: NADPH, 0-45 min, read-out: CLint(μL/min/mg protein) Human. As to the method: (§2) The liver microsomes of human, rat, mouse and dog were used to study the metabolic stability of the compounds. The specific experimental steps are as follows: • (1) Add 40 μL MgCl2 and 306 μL PBS to each well of a 96-well plate, and then add 4 μL compound, with a final DMSO concentration of ≤0.5%. Set up a blank well without compound; • (2) Add 10 μL of 20 mg/mL liver microsomes to each well, incubate at 37° C. for 10 min; • (3) Add 40 μL NADPH working solution to each well to start the reaction, and set up a control well without NADPH; • (4) At 0, 5, 15, and 45 min after the start of the reaction, 50 μL of sample was taken out, the termination solution was added, and the mixture was shaken for 5 min. • (5) The samples were then centrifuged at 3,220 g for 10 min, and 50 μL of the supernatant was removed and was added 200 μL water for dilution and analysis by LC-MS/MS.
(§3) The in vitro intrinsic clearance (in vitro CLint, in μL/min/mg) was calculated from the in vitro half-life t1/2 (minutes) using the following equation (mean of replicates):
(§4) In vitro clearance rate=0.693/in vitro half-life t1/2×[incubation volume (μL)/(protein amount (mg)]
Background: Microsomes from liver hold many membrane-bound enzymes, among them those of drug oxidation.

The nature of data set [5]: Metabolic stability of liver microsomes, rat. In kind it is in vitro ADME. The note with it: NADPH, 0-45 min, read-out: CLint(μL/min/mg protein) Rat. The procedure: as §2, §3, §4
Data set [6] in a line: Metabolic stability of liver microsomes, mouse. Type of data set: in vitro ADME. The settings on record: NADPH, 0-45 min, read-out: CLint(μL/min/mg protein) Mouse. The procedure:
as §2, §3, §4

Data set [7] is described as follows: Metabolic stability of liver microsomes, dog. In kind it is in vitro ADME. The settings on record: NADPH, 0-45 min, read-out: CLint(μL/min/mg protein) Dog. The procedure: as §2, §3, §4

The structures appear in SMILES notation.

Ba/F3 cells overexpressing EGFR Del19/T790M/C797S, sequence (P00533 with tags, fused parts or gaps DEL746-750/T790M/C797S, form open): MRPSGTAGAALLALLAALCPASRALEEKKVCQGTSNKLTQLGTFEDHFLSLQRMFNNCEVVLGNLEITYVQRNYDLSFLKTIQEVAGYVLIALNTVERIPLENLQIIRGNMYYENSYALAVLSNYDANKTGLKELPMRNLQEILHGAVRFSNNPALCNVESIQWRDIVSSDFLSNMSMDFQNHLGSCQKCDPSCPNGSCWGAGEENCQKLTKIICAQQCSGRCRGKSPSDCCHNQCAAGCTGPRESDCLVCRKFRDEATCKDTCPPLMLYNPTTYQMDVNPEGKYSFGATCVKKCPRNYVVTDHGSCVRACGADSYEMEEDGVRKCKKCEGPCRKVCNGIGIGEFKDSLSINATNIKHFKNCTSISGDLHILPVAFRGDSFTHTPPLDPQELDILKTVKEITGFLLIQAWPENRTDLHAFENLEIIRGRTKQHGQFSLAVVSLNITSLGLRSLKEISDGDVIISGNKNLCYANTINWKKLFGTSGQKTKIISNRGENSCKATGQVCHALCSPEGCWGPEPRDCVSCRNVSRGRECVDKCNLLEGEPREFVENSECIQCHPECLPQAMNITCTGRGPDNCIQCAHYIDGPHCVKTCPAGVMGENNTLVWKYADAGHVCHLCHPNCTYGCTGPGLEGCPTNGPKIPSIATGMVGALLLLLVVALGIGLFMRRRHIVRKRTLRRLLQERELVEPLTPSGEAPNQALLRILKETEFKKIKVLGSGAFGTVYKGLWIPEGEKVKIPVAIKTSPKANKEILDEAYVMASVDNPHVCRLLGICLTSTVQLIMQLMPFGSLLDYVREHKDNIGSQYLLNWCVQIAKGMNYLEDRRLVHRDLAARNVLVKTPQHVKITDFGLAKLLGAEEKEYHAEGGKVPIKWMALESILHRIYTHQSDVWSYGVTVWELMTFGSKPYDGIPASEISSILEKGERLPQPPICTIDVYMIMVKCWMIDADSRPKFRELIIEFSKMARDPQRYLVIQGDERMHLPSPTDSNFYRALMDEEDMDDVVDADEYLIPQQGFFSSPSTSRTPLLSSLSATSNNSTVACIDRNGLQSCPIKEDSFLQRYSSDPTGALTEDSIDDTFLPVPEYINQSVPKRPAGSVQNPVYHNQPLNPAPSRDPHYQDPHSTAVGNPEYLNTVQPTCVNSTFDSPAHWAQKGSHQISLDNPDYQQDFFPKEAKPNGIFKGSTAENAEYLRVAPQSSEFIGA
Ba/F3 (EGFR L858R/T790M/C797S), sequence (P00533 whole entry T790M/C797S/L858R): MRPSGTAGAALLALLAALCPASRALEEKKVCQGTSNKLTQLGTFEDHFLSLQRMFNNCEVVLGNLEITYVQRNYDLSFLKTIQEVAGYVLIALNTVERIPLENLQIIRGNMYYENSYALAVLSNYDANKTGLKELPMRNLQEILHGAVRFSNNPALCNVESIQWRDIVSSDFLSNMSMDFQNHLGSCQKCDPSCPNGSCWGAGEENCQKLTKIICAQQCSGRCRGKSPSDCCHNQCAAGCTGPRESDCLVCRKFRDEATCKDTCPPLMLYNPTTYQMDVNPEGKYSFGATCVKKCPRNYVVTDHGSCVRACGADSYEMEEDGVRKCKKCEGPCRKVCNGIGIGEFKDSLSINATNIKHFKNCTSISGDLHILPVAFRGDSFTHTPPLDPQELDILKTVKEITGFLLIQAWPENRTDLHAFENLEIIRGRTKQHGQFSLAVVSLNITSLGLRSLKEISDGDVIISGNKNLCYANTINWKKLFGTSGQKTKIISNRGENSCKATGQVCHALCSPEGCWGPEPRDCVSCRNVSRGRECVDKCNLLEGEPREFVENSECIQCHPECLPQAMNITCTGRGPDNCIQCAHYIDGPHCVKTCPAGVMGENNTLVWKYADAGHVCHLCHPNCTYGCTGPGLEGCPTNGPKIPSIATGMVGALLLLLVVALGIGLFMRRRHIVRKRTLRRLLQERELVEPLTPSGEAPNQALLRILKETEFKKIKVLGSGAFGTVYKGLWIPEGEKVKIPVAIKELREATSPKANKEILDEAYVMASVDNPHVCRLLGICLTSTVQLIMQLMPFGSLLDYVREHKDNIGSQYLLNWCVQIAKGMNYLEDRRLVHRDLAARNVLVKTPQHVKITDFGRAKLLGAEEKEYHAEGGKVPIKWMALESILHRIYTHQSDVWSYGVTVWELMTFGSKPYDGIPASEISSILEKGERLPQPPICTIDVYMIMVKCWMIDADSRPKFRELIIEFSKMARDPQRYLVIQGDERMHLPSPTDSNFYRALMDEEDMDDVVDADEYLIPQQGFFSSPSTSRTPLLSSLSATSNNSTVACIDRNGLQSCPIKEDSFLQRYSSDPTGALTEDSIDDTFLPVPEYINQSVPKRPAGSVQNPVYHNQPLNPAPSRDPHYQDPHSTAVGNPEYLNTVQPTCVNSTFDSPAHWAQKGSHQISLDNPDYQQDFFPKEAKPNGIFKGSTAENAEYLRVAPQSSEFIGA

By IC50 is commonly meant the concentration needed to halve the response being measured. High values mean a need for much substance, low ones inhibition by little substance. On to `Cc1cc2cc(n1)-c1cnccc1OCCC[C@@H](C)Cn1c(nc3ccc(N4CCC5(CCN(C)CC5)CC4)cc31)NC2=O` [Example 3, (R)-2^6,7-dimethyl-5^6-(9-methyl-3,9-diazaspiro[5.5]undecan-3-yl)-5^1H-11-oxa-4-aza-5(2,1)-benzo[d]imidazola-1(3,4)2(2,4)-dipyridinacycloundecaphan-3-one], for which the GI50 worked out at 0.49 nM in [1], 0.71 nM in [2], 0.07 nM at Ba/F3 (EGFR Del19/C797S) and 0.44 nM at Ba/F3 (EGFR L858R/C797S). Besides, in data set [3], the IC50 stood at 759 nM. Besides, the microsomal CLint in data set [4] was 6.6 µL/min/mg; in data set [5] it was 8 µL/min/mg; in data set [6], 23.1 µL/min/mg; in data set [7], 7.9 µL/min/mg.

On to `Cc1cc2cc(n1)-c1cnccc1OCCC[C@@H](C)Cn1c(nc3cc(F)c(N4CCC5(CCN(C)CC5)CC4)cc31)NC2=O` [Example 5, (R)-5^5-fluoro-2^6,7-dimethyl-5^6-(9-methyl-3,9-diazaspiro[5.5]undecan-3-yl)-5^1H-11-oxa-4-aza-5(2,1)-benzo[d]imidazola-1(3,4),2(2,4)-dipyridinacycloundecaphan-3-one], for which the GI50 in [1] turned out to be 0.61 nM; in data set [2], 0.98 nM; at Ba/F3 (EGFR Del19/C797S), 0.19 nM; at Ba/F3 (EGFR L858R/C797S), 0.88 nM. Besides, the IC50 in data set [3] came out at 331 nM. In addition, the microsomal CLint was 9.1 µL/min/mg in data set [4], 8.9 µL/min/mg in data set [5], 22.8 µL/min/mg in data set [6] and 2.2 µL/min/mg in [7].

Turning to `Cc1cc2cc(n1)-c1cnccc1OCCCCCn1c(nc3cc(C)c(N4CCC5(CCN(C)CC5)CC4)cc31)NC2=O` [Example 13, 2^6,5^5-dimethyl-5^6-(9-methyl-3,9-diazaspiro[5.5]undecan-3-yl)-5^1H-11-oxa-4-aza-5(2,1)-benzo[d]imidazola-1(3,4),2(2,4)-dipyridinacycloundecaphan-3-one], the GI50 in data set [1] was determined as 0.96 nM; in data set [2] it was 2 nM; on Ba/F3 (EGFR Del19/C797S) it was 0.2 nM; on Ba/F3 (EGFR L858R/C797S), 1.3 nM. For the same compound, the IC50 in data set [3] is above 3330 nM. The microsomal CLint in data set [4] was 4 µL/min/mg; in data set [5] it was 7 µL/min/mg; in [6], 6.2 µL/min/mg; in data set [7], 4.2 µL/min/mg.

For the compound `Cc1cc2cc(n1)-c1cnccc1OCCCCCn1c(nc3ccc(N4CCC5(CCN(CC(C)(C)F)CC5)CC4)cc31)NC2=O` [Example 78, 5^6-(9-(2-fluoro-2-methylpropyl)-3,9-diazaspiro [5.5]undecan-3-yl)-2^6-methyl-5^1H-11-oxa-4-aza-5(2,1)-benzo[d] imidazola-1(3,4),2(2,4)-dipyridinacyclo-undecaphan-3-one], the GI50 in data set [1] turned out to be 5.9 nM; in data set [2] it was 12 nM; on Ba/F3 (EGFR Del19/C797S), 3.3 nM; at Ba/F3 (EGFR L858R/C797S) it was 21 nM. This compound also showed an IC50 in data set [3] above 3330 nM. Moreover, the microsomal CLint in data set [4] was found to be 4.3 µL/min/mg; in data set [5], 12.2 µL/min/mg; in [6], 69.5 µL/min/mg; in [7], 22 µL/min/mg.
